Consider two molecules from patent publication US20220305003A1, “METHODS OF TREATING CANCER WITH AN INHIBITOR OF ZNF827” (CHILDREN'S MEDICAL RESEARCH INSTITUTE, priority 2019, published 2022).

For data set [1], the system named is HT1080 and HT1080 6TG cells. In words: γH2AX and ZNF827 foci by immunofluorescence. To be noted: topotecan 2 μg/mL 24 hr vs unchallenged.
The target of the next data set is T1, ZNF827 ZnF1-9 deleted (Homo sapiens).
T1 chain: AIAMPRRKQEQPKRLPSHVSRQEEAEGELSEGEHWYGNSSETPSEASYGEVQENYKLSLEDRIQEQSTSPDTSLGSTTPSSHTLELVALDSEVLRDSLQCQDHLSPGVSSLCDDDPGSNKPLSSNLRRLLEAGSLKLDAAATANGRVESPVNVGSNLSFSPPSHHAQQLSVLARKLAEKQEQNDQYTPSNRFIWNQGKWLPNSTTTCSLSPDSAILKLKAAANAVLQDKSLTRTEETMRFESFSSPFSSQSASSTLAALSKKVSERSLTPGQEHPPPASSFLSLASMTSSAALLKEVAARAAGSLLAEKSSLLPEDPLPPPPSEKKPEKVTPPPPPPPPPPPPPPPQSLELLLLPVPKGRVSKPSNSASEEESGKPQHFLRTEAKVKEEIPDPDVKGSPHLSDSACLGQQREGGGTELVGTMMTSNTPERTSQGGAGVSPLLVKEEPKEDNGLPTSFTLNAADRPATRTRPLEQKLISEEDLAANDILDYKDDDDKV
In words: EMSA; interaction abolished. The settings on record: tags: HaloTag (pHTN), expressed in HEK 293T, tag removed by HaloTEV cleavage; label: 32P (gamma). As to the method: (§1) Purified proteins were quantified using a BCA assay using the Pierce™ BCA Protein Assay Kit according to the manufacturer's instructions. Equal amounts of purified proteins were incubated in binding buffer (20 mM HEPES-KOH, pH7.9, 100 mM KCl, 0.8 mM ZnCl₂, 0.2 mM EDTA, 5% glycerol, 0.5 mM DTT and 0.5 mM PMSF) with 6.25 μg/mL poly (dI:dC) and 50 ng/μL BSA on ice for 20 minutes. ˜0.12 nM (˜2.5 fmol) γ-³²P labelled DNA oligonucleotide (see Table 3) probes were added to samples and incubated on ice for another 30 minutes. Binding reactions were loaded onto an 8% native acrylamide/bisacrylamide (19:1, Biorad) gel pre-run at 100V in 0.5× TB buffer (89 mM Tris, 89 mM boric acid) for 20 minutes. Gels were electrophoresed at 150 V for 150 minutes at 4° C., dried at 65° C. for 45 minutes, and then exposed to a Phosphor screen overnight. Gel images were obtained by scanning the screens with a Typhoon FLA9500 Imager (GE Life Sciences).
Background: A gel shift assay detects complexes by their altered migration in electrophoresis.

In data set [2] the target is T2, ZNF827 SUMOylation mutant (Homo sapiens, UniProt Q17R98 SEQ:4-1079).
T2 chain: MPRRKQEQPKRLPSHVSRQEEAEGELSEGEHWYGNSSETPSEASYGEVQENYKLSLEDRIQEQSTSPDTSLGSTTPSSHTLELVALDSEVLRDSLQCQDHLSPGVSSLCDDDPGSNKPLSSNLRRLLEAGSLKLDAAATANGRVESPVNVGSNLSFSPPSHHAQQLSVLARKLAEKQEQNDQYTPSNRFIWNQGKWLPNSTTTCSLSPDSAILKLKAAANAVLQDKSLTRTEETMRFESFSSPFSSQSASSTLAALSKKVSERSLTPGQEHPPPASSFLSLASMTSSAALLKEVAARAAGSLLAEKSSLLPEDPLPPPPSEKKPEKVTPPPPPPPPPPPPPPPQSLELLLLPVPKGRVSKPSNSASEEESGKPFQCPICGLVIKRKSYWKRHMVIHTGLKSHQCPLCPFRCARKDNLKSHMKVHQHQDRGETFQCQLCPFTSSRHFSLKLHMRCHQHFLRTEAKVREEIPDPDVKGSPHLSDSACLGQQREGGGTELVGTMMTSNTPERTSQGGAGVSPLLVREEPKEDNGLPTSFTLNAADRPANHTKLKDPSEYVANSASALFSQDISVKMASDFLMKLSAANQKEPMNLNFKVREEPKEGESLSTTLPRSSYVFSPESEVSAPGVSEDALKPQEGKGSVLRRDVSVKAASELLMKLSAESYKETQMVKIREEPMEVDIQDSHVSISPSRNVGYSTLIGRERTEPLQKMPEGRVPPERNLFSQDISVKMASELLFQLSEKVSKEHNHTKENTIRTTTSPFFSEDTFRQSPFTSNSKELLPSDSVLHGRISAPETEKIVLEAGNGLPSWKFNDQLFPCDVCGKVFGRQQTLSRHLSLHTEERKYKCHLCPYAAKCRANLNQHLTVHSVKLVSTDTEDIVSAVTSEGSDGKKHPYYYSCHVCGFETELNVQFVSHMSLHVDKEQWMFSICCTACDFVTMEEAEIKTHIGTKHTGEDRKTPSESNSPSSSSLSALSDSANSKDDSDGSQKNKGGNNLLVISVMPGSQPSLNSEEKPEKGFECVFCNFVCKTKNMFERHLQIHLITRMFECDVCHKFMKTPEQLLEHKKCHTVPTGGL
In words: EMSA; positive control; 0.8 mM ZnCl2, 100 mM KCl, poly(dI:dC), on ice. To be noted: tags: HaloTag (pHTN), expressed in HEK 293T, tag removed by HaloTEV cleavage; label: 32P (gamma). As to the method: as §1
To identify which zinc fingers are required for DNA binding activity, zinc finger mutants with either one or both zinc finger clusters deleted were also generated and purified (FIG. 1). Purified proteins were validated by HaloTag® TMR ligand detection and western blot analysis. Mass spectrometry (MS) analysis also confirmed the specificity of the HaloTag protein purification method. […]

Consider `CC[C@@]1(O)C(=O)OCc2c1cc1n(c2=O)Cc2cc3c(CN(C)C)c(O)ccc3nc2-1` [topotecan], for which, in data set [1], the ZNF827 foci induction entry is “striking induction of ZNF827” and the γH2AX foci induction result is recorded as “efficiently induced γH2AX foci”.

B1: ss telomeric G rich oligo (ssDNA)
DNA: TTAGGGTTAGGGTTAGGG
Regarding B1, the binding result is on record as “no binding” in the data set with ZNF827 ZnF1-9 deleted and “binds” in data set [2].
